Measurements: PMC11178805, “Ligand-based design of [^18F]OXD-2314 for PET imaging in non-Alzheimer’s disease tauopathies” (Nature Communications, 2024)

Columns and labels:
[1] = molecular target: T1, 4R-tau aggregates in PSP tissue (Homo sapiens, UniProt P10636); assay: Competition binding vs [^3H]OXD-2314 in PSP tissue
T1 construct: tissue Neurodegenerative Disease Brain Bank at UCSF
Method: (§1) Fresh frozen, autopsy-confirmed human PD anterior cingulate cortex brain tissue blocks (1 cm^3) were obtained from Dr. Thomas Beach at Banner/Sun Health AZ with funding from the Michael J. Fox Foundation and contained frequent α-synuclein aggregates and no other detectable aggregated amyloid species. The frozen tissue blocks were prepared for the binding assays as previously described[47],[48], except that equal quantities of the homogenates of three AD brains (AD1-AD3, Table S1) were pooled, as were homogenates from three PSP brains (PSP1-PSP3), three CBD brains (CBD1-CBD3), three Pick’s brains (PiD1-PiD3), and 4 PD brains (PD1-PD4) in order to help minimize the inter-subject variability within the different neuropathological groups. Individual subcortical brain tissues from a PSP subject (PSP4) and a CBD subject (CBD4), as well as with the middle frontal cortex of a control subject, were prepared for the binding assays as previously described[47],[48].
(§2) The equilibrium inhibition constant (Ki) values of the unlabeled compounds were determined versus tritium-labeled radioligands using published methods.

[2] = molecular target: T2, 3R-tau aggregates in PiD tissue (Homo sapiens, UniProt P10636); assay: Competition binding vs [^3H]OXD-2314 in PiD tissue
T2 construct: tissue Neurodegenerative Disease Brain Bank at UCSF; host or cells: human PiD brain, middle frontal gyrus, pooled homogenate of three brains
T2 sequence (P10636 1-410 isoform P10636-5): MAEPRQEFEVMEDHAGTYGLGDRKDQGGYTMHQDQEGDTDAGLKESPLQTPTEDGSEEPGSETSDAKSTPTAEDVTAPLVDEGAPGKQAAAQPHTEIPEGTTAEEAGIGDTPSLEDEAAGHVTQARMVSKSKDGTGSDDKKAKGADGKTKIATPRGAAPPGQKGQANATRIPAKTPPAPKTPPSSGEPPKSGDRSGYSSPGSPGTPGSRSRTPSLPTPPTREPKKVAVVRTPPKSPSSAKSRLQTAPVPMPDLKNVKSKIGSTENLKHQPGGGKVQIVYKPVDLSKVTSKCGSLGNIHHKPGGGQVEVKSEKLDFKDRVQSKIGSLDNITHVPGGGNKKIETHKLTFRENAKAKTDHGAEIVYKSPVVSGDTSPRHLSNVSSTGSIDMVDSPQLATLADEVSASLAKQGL
Method: as §1, §2

[3] = molecular target: T3, 5-lipoxygenase (Homo sapiens, UniProt P09917); assay: In vitro pharmacology enzyme screen (Eurofins): 5-lipoxygenase; assay type: biochemical
T3 construct: purchased Eurofins, France (contract screening)
T3 sequence (P09917 1-674): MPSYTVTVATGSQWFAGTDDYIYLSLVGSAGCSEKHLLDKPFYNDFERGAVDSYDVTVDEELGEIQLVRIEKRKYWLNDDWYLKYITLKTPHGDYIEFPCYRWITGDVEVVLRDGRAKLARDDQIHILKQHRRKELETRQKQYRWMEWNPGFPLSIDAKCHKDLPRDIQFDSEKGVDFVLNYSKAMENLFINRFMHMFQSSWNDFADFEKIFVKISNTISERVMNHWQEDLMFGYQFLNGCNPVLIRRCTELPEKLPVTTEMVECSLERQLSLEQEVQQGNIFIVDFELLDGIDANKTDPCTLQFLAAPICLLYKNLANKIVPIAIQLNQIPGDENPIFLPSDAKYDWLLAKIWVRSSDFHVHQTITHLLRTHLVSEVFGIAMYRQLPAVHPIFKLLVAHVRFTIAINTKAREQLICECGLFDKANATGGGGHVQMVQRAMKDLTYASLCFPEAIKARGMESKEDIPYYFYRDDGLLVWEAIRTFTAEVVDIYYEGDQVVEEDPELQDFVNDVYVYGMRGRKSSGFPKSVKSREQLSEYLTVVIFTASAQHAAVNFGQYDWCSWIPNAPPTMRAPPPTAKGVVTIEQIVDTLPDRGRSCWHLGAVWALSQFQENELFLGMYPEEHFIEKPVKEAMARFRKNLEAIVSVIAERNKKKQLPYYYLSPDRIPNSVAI
Method: (§3) OXD-2314 binding to CNS receptors was calculated as a percentage of inhibition of a receptor-specific radioligand. Enzyme inhibition was calculated as the percent inhibition of baseline enzyme activity where inhibition above 50% was considered significant. […] Norepinephrine transports are expressed in low concentration throughout the brain and its relative concentration are not affected by aging or neurodegeneration. 5-lipoxygenase may be overexpressed in aging brain and play some role in neurodegeneration, which could be necessary to further investigate in vivo[42]. Off-target binding to monoamine oxidase A and B (MAO-A and MAO-B) has been seen with some tau PET radiotracers[43],[44].

[4] = molecular target: T4, MAO-A (Homo sapiens, UniProt P21397); assay: In vitro pharmacology screen (Eurofins): MAO-A; assay type: binding; conditions: read-out: interaction with MAO-A (% inhibition)
T4 construct: purchased Eurofins, France (contract screening)
T4 sequence (P21397 1-527): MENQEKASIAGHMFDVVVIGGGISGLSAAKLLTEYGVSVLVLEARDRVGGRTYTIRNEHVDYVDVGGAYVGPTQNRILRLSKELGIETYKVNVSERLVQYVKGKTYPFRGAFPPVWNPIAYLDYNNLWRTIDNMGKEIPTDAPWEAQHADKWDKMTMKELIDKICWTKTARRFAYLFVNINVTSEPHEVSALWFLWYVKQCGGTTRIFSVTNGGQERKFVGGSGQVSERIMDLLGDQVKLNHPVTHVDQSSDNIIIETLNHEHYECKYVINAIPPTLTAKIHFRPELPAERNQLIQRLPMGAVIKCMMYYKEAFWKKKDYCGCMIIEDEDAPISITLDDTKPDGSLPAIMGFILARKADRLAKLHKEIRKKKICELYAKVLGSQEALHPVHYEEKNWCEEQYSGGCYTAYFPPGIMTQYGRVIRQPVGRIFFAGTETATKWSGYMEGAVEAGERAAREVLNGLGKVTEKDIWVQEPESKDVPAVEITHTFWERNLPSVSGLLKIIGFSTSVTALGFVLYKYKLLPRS
Method: as §3

[5] = molecular target: T5, MAO-B (Homo sapiens, UniProt P27338); assay: In vitro pharmacology screen (Eurofins): MAO-B; conditions: read-out: inhibition of MAO-B binding
T5 construct: purchased Eurofins, France (contract screening)
T5 sequence (P27338 1-520): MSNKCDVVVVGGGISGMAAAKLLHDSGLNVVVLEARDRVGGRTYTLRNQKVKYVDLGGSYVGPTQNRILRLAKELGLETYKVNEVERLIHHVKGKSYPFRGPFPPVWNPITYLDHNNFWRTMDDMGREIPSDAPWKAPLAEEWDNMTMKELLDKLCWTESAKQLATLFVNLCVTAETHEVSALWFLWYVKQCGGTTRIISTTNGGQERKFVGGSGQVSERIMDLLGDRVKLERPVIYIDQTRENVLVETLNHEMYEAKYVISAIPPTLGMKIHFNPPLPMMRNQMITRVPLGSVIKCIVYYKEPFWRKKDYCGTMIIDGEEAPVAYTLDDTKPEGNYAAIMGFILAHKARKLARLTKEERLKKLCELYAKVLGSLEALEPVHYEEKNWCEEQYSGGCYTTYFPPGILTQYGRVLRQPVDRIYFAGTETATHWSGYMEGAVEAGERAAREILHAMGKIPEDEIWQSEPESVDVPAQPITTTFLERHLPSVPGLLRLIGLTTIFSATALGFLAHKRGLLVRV
Method: as §3

T1 sequence (P10636 1-441 isoform P10636-8): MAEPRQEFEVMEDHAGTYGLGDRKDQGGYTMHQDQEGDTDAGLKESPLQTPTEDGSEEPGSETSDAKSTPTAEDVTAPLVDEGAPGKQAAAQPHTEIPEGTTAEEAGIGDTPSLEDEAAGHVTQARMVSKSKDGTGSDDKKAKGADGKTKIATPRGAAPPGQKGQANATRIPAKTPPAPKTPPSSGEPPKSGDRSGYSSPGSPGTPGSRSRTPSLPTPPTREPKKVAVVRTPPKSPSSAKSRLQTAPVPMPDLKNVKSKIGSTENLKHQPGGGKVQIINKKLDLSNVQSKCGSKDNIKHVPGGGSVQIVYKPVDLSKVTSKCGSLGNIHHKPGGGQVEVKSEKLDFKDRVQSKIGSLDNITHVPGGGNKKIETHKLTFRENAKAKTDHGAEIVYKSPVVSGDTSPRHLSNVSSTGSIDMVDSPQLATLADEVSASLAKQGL

In the case of `COC1CCCN(c2ccc(-c3cc4cc(O)ccc4[nH]3)c(F)n2)C1` (centres unmarked) [OXD-2314, 2-(2-fluoro-6-(3-methoxypiperidin-1-yl)pyridin-3-yl)-1H-indol-5-ol], the Ki [1] is reported as 5.8 ± 0.2 nM, the Ki [2] is reported as 5.5 ± 0.5 nM and the inhibition at 10 µM [3] is reported as 50.1%. For the same compound, the inhibition at 10 µM [4] was -1.7% and the inhibition at 10 µM [5] was 37%.
